≈ marks a conversion by molar mass, not a printed value.
Assays:
RAW264.7 [1] = assay: Antiinflammatory activity in mouse RAW264.7 cells assessed as inhibition of LPS-induced NF-kappaB expression at 5 ug/ml; type: functional
Mus musculus [2] = assay: Antiinflammatory activity in TPA-induced ear edema ICR mouse model assessed as inhibition of ear inflammation at 1 ug, TOP for 30 mins followed by TPA addition and measured after 6 hrs; type: functional; conditions: dose 1 µg, time 390 min, 6.5 h
RAW264.7 [3] = assay: Antiinflammatory activity in mouse RAW264.7 cells assessed as inhibition of LPS-induced COX-2 expression at 5 ug/ml; type: functional
RAW264.7 [4] = assay: Antiinflammatory activity in mouse RAW264.7 cells assessed as inhibition of LPS-induced iNOS expression at 5 ug/ml; type: functional
RAW264.7 [5] = assay: Antiinflammatory activity in mouse RAW264.7 cells assessed as inhibition of LPS-induced IL-1beta expression at 5 ug/ml; type: functional
RAW264.7 [6] = assay: Antiinflammatory activity in mouse RAW264.7 cells assessed as inhibition of LPS-induced TNFalpha expression at 5 ug/ml; type: functional
RAW264.7 [7] = assay: Antiinflammatory activity in mouse RAW264.7 cells assessed as inhibition of LPS-induced NO production; type: functional, cell-based
[8] = Antioxidant activity assessed as DPPH radical scavenging activity incubated for 30 mins by spectrophotometric analysis; type: functional
[9] = Antioxidant activity assessed as DPPH radical scavenging activity; type: functional
[10] = Antioxidant activity assessed as ABTS radical scavenging activity measured after 6 mins; type: functional
[11] = Antioxidant activity assessed as hydroxyl radical scavenging activity; type: functional
J774.A1 [12] = assay: Antiinflammatory activity in mouse J774.A1 cells assessed as inhibition of LPS-induced NO production incubated for 24 hrs by Griess reagent based analysis; type: functional, cell-based; conditions: J774.A1, 24 h
RAW264.7 [13] = assay: Antiinflammatory activity in mouse RAW264.7 cells assessed as inhibition of IFN-gamma and LPS-induced NO production incubated for 24 hrs by Griess assay; type: functional, cell-based; conditions: RAW264.7, 24 h
RAW264.7 [14] = assay: Antiinflammatory activity in mouse RAW264.7 cells assessed as inhibition of LPS-induced NO production preincubated for 0.5 hrs followed by LPS stimulation and measured after 24 hrs by Griess reagent based analysis; type: functional, cell-based
RAW264.7 [15] = assay: Antiinflammatory activity against mouse RAW264.7 cells assessed as inhibition of IFN-gamma and LPS-induced COX2 production preincubated for 2 hrs followed by IFN-gamma and LPS stimulation and measured after 16 hrs by spectrophotometric analysis; type: functional, cell-based
RAW264.7 [16] = assay: Antiinflammatory activity in mouse RAW264.7 cells assessed as inhibition of LPS-induced TNFalpha production preincubated for 1 hr followed by LPS stimulation and measured after 18 hrs by immunoassay; type: functional, cell-based
MCF-10A = assay: Antiinflammatory activity in human MCF-10A cells assessed as inhibition of TPA-induced COX2 production at 12.5 to 100 uM incubated for 4 hrs by Western blot analysis; type: functional; conditions: dose 12.5-100 µM
RAW264.7 [17] = assay: Antiinflammatory activity in mouse RAW264.7 cells assessed as inhibition of LPS-induced NO production incubated for 20 hrs by Griess method; type: functional, cell-based; conditions: RAW264.7, 20 h
RAW264.7 [18] = assay: Antiinflammatory activity in mouse RAW264.7 cells assessed as inhibition of LPS-induced NO production preincubated for 1 hrs followed by LPS stimulation and measured after 24 hrs by Griess reagent based analysis; type: functional, cell-based
RAW264.7 [19] = assay: Antiinflammatory activity in mouse RAW264.7 cells assessed as inhibition of LPS-induced NF-kappaB activation incubated for 24 hrs by SEAP microplate reader analysis; type: functional, cell-based; conditions: RAW264.7, 24 h
RAW264.7 [20] = assay: Antiinflammatory activity in mouse RAW264.7 cells assessed as inhibition of IFN-gamma and LPS-induced NO production incubated for 20 hrs by Griess assay; type: functional, cell-based; conditions: RAW264.7, 20 h
RAW264.7 [21] = assay: Antiinflammatory activity in mouse RAW264.7 cells assessed as inhibition of LPS-induced NO production incubated for 24 hrs by Griess reagent based analysis; type: functional, cell-based; conditions: RAW264.7, 24 h
[22] = Antioxidant activity assessed as nitroblue tetrazolium superoxide radical scavenging activity incubated for 10 mins by spectrophotometric analysis; type: functional
J774.A1 [23] = assay: Antiinflammatory activity in mouse J774.A1 cells assessed as inhibition of LPS-induced IL-6 production at 10 microg/ml preincubated for 30 mins followed by LPS stimulation and measured after 2 hrs by Griess reagent based analysis; type: functional; conditions: J774.A1, 2.5 h, time 150 min
J774.A1 [24] = assay: Antiinflammatory activity in mouse J774.A1 cells assessed as inhibition of LPS-induced TNF-alpha production at 10 microg/ml preincubated for 30 mins followed by LPS stimulation and measured after 2 hrs by Griess reagent based analysis; type: functional; conditions: J774.A1, 2.5 h, time 150 min
Mus musculus [25] = assay: Antiinflammatory activity in ICR mouse model of TPA-induced ear edema assessed as inhibition of ear inflammation at 1 mg,TOP for 30 mins followed by TPA addition and measured after 6 hrs; type: functional; conditions: time 390 min, 6.5 h
RAW264.7 [26] = assay: Antiinflammatory activity in mouse RAW264.7 cells assessed as inhibition of LPS-induced NO production at 30 uM preincubated for 0.5 hrs followed by LPS stimulation and measured after 24 hrs by Griess reagent based analysis; type: functional; conditions: time 24.5 hrs
RAW264.7 [27] = assay: Cytotoxicity against mouse RAW264.7 cells assessed as reduction in cell viability at 30 uM by MTT assay; type: toxicity, cell-based; conditions: raw264.7, 30 µM

**Q.** With `O=C(/C=C/CCc1ccc(O)cc1)CCc1ccccc1` as the molecule, how does the inhibition at 5 µg/mL (RAW264.7 [1]) read?
**A.** Its inhibition at 5 µg/mL is 50%.

**Q.** What about the ID50 (Mus musculus [2]) of the same molecule?
**A.** The ID50 was 0.8 µmol.

**Q.** What about the inhibition at 5 µg/mL (RAW264.7 [3]) of the same molecule?
**A.** The inhibition at 5 µg/mL was 69%.

**Q.** What about the inhibition at 5 µg/mL (RAW264.7 [4]) of the same molecule?
**A.** Its inhibition at 5 µg/mL is 69%.

**Q.** What about the inhibition at 5 µg/mL (RAW264.7 [5]) of the same molecule?
**A.** Its inhibition at 5 µg/mL is 70%.

**Q.** And the inhibition at 5 µg/mL (RAW264.7 [6])?
**A.** The inhibition at 5 µg/mL was 71%.

**Q.** And the IC50 (RAW264.7 [7])?
**A.** Its IC50 is 5 µg/mL (≈ 17.8 µM).

**Q.** For `O=C1O[C@H]([C@@H](O)CO)C(O)=C1O` [ASCORBIC ACID], which IC50 [8] is on record?
**A.** The IC50 was 24.8 µM.

**Q.** And the IC50 [9]?
**A.** The IC50 was 58 µg/mL (≈ 329 µM).

**Q.** And the IC50 [10]?
**A.** Its IC50 is 23.3 µM.

**Q.** And the IC50 [11]?
**A.** The IC50 was 47 µg/mL (≈ 267 µM).

**Q.** What about the IC50 (J774.A1 [12]) of the same molecule?
**A.** The IC50 was greater than 100 µM.

**Q.** Which results are given for `O=C(CCc1ccc(O)c(O)c1)C[C@@H](O)CCc1ccc(O)c(O)c1` [HIRSUTANONOL]?
**A.** IC50 [8]: 26 µM; IC50 (RAW264.7 [13]): 44.3 µg/mL (≈ 128 µM); IC50 (RAW264.7 [14]): 30 µM; IC50 (RAW264.7 [15]): 25.7 µg/mL (≈ 74.2 µM); IC50 (RAW264.7 [16]): 23.7 µM; inhibition (INH) (MCF-10A): 22%; IC50 (RAW264.7 [17]): 17.8 µM; IC50 (RAW264.7 [18]): 21.3 µM; IC50 (RAW264.7 [19]): 9.9 µM; IC50 (RAW264.7 [20]): 3.8 µM; IC50 (RAW264.7 [21]): 19.3 µM; IC50 [22]: 19 µM

**Q.** Which results are given for `O=C(CCc1ccc(O)c(O)c1)C[C@H](CCc1ccc(O)c(O)c1)O[C@@H]1O[C@H](CO)[C@@H](O)[C@H](O)[C@H]1O`?
**A.** IC50 (RAW264.7 [13]): 29.4 µg/mL (≈ 57.8 µM); IC50 (RAW264.7 [14]): 10 µM; IC50 (RAW264.7 [15]): 33.7 µg/mL (≈ 66.3 µM); inhibition at 10 µg/mL (J774.A1 [23]): 75%; inhibition at 10 µg/mL (J774.A1 [24]): 51%

**Q.** Which results are given for `Oc1ccc(CCCC[C@@H](O)CCc2ccc(O)cc2)cc1`?
**A.** ID50 (Mus musculus [25]): 0.66 mg; IC50 [8]: 44.4 µM; inhibition at 30 µM (RAW264.7 [26]): 29%; IC50 (RAW264.7 [18]): 27.8 µM; Activity (RAW264.7 [27]): 52%
